Measurements: ChEMBL document CHEMBL4507273 (2021)

Key:
[1] = biological target: Tyrosine-protein kinase Tec (Homo sapiens) (UniProt P42680); settings: Compound concentration 1000.0 nM
[2] = biological target: T1, Alpha-1B adrenergic receptor (Homo sapiens, UniProt P35368); assay: GPCRScan assay: inhibition of Alpha1B; set-up: radioligand conc. used [nm] 0.3 – 1.0, parental cells stable HEK
T1 sequence (P35368 whole entry): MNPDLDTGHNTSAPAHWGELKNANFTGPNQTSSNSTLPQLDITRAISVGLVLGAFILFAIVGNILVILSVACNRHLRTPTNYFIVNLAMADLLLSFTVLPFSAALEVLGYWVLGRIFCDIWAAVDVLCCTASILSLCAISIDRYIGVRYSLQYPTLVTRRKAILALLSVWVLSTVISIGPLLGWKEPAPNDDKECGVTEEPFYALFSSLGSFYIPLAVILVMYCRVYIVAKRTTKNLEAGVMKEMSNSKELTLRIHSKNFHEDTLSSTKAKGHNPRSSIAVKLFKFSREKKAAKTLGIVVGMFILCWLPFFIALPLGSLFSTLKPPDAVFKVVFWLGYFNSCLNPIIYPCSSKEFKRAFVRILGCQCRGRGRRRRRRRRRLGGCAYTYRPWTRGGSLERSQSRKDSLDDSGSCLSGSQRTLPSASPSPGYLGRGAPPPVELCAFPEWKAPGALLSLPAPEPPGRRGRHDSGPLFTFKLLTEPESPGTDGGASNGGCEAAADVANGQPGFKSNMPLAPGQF

[3] = biological target: D(1B) dopamine receptor (Homo sapiens) (UniProt P21918); settings: Compound concentration 10.0 uM
[4] = tested on: Mast/stem cell growth factor receptor Kit (Homo sapiens), P10721 [D816V]; settings: Compound concentration 1000.0 nM
[5] = biological target: Serine/threonine-protein kinase Nek5 (Homo sapiens) (UniProt Q6P3R8); settings: Compound concentration 1000.0 nM
[6] = biological target: Macrophage-stimulating protein receptor (Homo sapiens) (UniProt Q04912); settings: Compound concentration 1000.0 nM
[7] = biological target: Interleukin-1 receptor-associated kinase 4 (Homo sapiens) (UniProt Q9NWZ3); settings: Compound concentration 1000.0 nM
[8] = biological target: Calcium/calmodulin-dependent protein kinase type IV (Homo sapiens) (UniProt Q16566); settings: Compound concentration 1000.0 nM
[9] = biological target: Dual specificity mitogen-activated protein kinase kinase 3 (Homo sapiens) (UniProt P46734); settings: Compound concentration 1000.0 nM
[10] = biological target: Cyclin-dependent kinase 4 (Homo sapiens) (UniProt P11802); settings: Compound concentration 1000.0 nM
[11] = tested on: Tyrosine-protein kinase ABL1 (Homo sapiens), P00519 [T315I]; settings: Compound concentration 1000.0 nM
[12] = biological target: Calcium-dependent protein kinase 1 (Plasmodium falciparum) (UniProt P62344); settings: Compound concentration 1000.0 nM
[13] = biological target: Insulin-like growth factor 1 receptor (Homo sapiens) (UniProt P08069); settings: Compound concentration 1000.0 nM
[14] = biological target: Phosphatidylinositol 4-phosphate 5-kinase type-1 gamma (Homo sapiens) (UniProt O60331); settings: Compound concentration 1000.0 nM
[15] = biological target: Rho-associated protein kinase 1 (Homo sapiens) (UniProt Q13464); settings: Compound concentration 1000.0 nM
Histamine H2 receptor = Histamine H2 receptor (Homo sapiens, UniProt P25021); assay: GPCRScan assay: inhibition of H2; set-up: radioligand conc. used [nm] 0.02 – 0.05, parental cells Stable HEK
[16] = biological target: Receptor-interacting serine/threonine-protein kinase 4 (Homo sapiens) (UniProt P57078); settings: Compound concentration 1000.0 nM
[17] = biological target: Death-associated protein kinase 3 (Homo sapiens) (UniProt O43293); settings: Compound concentration 1000.0 nM
[18] = biological target: Serine/threonine-protein kinase Nek10 (Homo sapiens) (UniProt Q6ZWH5); settings: Compound concentration 1000.0 nM
[19] = biological target: Tyrosine-protein kinase Lck (Homo sapiens) (UniProt P06239); settings: Compound concentration 1000.0 nM
[20] = biological target: Glycogen synthase kinase-3 alpha (Homo sapiens) (UniProt P49840); settings: Compound concentration 1000.0 nM
[21] = biological target: Dual specificity mitogen-activated protein kinase kinase 1 (Homo sapiens) (UniProt Q02750); settings: Compound concentration 1000.0 nM
[22] = biological target: Alpha-1D adrenergic receptor (Homo sapiens) (UniProt P25100); settings: Compound concentration 10.0 uM
[23] = biological target: T2, Muscarinic acetylcholine receptor M1 (Homo sapiens, UniProt P11229); assay: GPCRScan assay: inhibition of M1; set-up: radioligand conc. used [nm] 0.3 – 1.2, parental cells stable CHO
T2 sequence (P11229 whole entry): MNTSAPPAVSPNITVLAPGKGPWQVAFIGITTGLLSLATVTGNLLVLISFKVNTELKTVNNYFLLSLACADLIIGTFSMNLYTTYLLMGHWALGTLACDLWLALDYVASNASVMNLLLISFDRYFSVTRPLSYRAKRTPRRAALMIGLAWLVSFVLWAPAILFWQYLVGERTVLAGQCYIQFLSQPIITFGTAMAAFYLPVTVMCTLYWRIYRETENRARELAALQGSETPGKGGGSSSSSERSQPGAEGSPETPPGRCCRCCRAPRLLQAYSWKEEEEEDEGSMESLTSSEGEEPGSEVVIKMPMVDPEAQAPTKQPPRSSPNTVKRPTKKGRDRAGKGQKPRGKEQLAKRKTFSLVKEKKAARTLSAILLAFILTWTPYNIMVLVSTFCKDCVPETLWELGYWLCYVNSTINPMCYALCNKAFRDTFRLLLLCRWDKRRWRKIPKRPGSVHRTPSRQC

[24] = biological target: cGMP-dependent protein kinase 2 (Homo sapiens) (UniProt Q13237); settings: Compound concentration 1000.0 nM
[25] = biological target: Mitogen-activated protein kinase kinase kinase 6 (Homo sapiens) (UniProt O95382); settings: Compound concentration 1000.0 nM
[26] = biological target: Membrane-associated tyrosine- and threonine-specific cdc2-inhibitory kinase (Homo sapiens) (UniProt Q99640); settings: Compound concentration 1000.0 nM
[27] = biological target: Aurora kinase B (Homo sapiens) (UniProt Q96GD4); settings: Compound concentration 1000.0 nM
[28] = biological target: Serine/threonine-protein kinase DCLK1 (Homo sapiens) (UniProt O15075); settings: Compound concentration 1000.0 nM
[29] = tested on: Epidermal growth factor receptor (Homo sapiens), P00533 [UNDEFINED MUTATION]; settings: Compound concentration 1000.0 nM
[30] = biological target: 5'-AMP-activated protein kinase catalytic subunit alpha-1 (Homo sapiens) (UniProt Q13131); settings: Compound concentration 1000.0 nM

Histamine H2 receptor, sequence (P25021 whole entry): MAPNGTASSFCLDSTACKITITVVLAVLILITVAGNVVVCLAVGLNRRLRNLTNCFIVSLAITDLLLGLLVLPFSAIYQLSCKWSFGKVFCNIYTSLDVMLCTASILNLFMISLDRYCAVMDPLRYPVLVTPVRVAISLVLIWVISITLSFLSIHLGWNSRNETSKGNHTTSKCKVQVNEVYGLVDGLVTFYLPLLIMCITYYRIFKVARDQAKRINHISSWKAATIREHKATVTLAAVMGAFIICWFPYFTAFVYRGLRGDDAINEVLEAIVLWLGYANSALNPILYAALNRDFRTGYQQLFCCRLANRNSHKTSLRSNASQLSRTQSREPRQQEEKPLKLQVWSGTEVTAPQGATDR
Dual specificity mitogen-activated protein kinase kinase 1 (Homo sapiens), sequence (Q02750 whole entry): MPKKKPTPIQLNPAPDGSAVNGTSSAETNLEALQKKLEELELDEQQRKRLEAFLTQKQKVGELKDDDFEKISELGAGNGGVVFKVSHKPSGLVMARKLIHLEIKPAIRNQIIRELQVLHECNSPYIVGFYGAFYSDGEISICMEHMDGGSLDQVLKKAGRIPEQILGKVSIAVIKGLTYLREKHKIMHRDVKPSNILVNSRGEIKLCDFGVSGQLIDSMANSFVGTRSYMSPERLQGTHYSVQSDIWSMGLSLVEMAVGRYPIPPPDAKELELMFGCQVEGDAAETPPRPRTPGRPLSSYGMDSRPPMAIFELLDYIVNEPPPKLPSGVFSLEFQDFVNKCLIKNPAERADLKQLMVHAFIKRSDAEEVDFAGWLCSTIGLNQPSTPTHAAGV
Cyclin-dependent kinase 4 (Homo sapiens), sequence (P11802 whole entry): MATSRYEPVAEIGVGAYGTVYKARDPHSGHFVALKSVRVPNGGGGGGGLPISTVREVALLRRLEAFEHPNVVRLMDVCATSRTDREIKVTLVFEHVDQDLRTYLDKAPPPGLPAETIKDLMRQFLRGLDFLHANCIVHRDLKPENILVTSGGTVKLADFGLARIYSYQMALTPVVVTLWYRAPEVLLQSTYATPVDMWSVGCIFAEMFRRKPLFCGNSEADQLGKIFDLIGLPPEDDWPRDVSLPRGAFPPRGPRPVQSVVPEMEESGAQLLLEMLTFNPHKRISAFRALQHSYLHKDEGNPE
Tyrosine-protein kinase Lck (Homo sapiens), sequence (P06239 2-509 limits assumed): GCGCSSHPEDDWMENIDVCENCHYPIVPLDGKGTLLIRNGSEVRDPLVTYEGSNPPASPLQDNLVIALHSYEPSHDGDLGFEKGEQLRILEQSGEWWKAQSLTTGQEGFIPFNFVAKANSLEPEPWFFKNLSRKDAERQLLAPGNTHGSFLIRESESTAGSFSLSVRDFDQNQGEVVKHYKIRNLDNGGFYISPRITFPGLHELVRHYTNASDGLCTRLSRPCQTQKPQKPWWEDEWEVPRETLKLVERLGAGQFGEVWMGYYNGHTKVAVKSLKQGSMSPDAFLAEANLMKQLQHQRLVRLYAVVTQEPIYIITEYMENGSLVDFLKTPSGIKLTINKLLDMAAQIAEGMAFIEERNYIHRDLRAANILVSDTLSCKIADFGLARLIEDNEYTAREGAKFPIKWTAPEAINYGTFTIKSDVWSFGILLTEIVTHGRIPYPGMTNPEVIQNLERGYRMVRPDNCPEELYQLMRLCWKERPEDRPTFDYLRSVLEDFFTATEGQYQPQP
Aurora kinase B (Homo sapiens), sequence (Q96GD4 whole entry): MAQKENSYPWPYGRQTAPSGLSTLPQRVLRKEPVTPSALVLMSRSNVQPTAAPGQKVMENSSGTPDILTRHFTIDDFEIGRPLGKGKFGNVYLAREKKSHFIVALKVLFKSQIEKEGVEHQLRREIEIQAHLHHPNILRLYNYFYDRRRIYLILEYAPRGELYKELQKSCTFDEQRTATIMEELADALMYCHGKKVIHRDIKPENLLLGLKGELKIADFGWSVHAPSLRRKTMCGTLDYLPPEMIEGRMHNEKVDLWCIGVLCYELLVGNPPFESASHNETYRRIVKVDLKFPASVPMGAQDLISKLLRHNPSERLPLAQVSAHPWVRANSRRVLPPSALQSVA
Receptor-interacting serine/threonine-protein kinase 4 (Homo sapiens), sequence (P57078 whole entry): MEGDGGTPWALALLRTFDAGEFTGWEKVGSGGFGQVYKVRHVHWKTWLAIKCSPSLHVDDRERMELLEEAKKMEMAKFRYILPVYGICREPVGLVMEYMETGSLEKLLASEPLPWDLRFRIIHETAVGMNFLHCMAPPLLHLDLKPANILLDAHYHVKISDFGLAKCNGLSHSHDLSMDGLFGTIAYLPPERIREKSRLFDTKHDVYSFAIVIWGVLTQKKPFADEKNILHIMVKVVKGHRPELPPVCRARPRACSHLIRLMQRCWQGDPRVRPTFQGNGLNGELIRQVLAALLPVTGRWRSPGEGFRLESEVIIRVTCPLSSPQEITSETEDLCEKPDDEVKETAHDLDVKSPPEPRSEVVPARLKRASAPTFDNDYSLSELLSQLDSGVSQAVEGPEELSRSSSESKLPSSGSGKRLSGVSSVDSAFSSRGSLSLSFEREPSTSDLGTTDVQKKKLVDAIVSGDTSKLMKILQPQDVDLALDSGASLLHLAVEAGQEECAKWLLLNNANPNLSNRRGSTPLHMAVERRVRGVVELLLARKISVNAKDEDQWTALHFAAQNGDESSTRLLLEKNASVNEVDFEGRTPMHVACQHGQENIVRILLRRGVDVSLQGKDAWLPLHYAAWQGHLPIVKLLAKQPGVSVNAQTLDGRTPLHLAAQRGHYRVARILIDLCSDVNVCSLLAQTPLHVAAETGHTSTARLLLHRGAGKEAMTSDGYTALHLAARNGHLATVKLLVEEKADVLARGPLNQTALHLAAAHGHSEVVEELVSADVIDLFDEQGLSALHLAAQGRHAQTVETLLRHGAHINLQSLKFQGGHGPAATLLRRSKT
Death-associated protein kinase 3 (Homo sapiens), sequence (O43293 whole entry, looked up): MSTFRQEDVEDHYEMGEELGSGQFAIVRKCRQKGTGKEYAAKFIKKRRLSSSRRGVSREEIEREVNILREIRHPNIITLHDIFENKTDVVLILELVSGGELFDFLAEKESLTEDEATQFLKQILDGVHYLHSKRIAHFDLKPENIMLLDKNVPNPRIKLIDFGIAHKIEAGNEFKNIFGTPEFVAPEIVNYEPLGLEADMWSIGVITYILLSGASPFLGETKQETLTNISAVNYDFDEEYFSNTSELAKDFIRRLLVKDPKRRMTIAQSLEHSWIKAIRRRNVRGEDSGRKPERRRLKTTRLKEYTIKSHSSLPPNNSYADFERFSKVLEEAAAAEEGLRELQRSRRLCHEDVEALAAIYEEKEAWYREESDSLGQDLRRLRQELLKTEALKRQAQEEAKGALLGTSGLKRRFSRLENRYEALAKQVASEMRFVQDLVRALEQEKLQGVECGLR
Phosphatidylinositol 4-phosphate 5-kinase type-1 gamma (Homo sapiens), sequence (O60331 whole entry): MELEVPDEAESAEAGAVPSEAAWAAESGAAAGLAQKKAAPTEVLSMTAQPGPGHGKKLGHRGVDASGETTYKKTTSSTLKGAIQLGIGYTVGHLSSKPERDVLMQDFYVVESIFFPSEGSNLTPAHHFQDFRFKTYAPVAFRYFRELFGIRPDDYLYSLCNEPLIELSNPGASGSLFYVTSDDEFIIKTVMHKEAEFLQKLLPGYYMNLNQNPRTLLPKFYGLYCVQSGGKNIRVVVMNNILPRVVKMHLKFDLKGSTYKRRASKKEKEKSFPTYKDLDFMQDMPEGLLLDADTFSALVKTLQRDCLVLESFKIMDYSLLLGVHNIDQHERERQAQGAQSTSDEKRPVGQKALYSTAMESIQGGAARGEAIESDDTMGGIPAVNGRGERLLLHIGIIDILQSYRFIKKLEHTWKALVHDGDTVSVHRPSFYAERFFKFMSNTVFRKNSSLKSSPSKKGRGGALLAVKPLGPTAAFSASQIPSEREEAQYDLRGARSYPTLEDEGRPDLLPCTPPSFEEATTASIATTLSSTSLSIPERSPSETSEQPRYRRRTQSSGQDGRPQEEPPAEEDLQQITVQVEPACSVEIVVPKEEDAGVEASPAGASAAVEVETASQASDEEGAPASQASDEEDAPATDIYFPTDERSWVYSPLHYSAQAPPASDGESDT
Calcium-dependent protein kinase 1 (Plasmodium falciparum), sequence (P62344 2-524 limits assumed): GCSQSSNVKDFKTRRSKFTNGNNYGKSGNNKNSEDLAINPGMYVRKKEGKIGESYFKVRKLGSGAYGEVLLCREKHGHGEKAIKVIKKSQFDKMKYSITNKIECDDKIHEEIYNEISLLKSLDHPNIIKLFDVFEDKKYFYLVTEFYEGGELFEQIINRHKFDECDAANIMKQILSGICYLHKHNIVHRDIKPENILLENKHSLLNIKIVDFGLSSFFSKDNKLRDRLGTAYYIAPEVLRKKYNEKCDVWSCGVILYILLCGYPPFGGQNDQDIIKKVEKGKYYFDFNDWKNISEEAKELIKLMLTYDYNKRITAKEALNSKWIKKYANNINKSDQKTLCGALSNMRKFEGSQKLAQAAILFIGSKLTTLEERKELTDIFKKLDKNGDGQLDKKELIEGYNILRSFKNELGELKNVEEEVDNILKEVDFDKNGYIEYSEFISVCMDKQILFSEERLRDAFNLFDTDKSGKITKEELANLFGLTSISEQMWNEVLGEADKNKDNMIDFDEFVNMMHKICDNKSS
Calcium/calmodulin-dependent protein kinase type IV (Homo sapiens), sequence (Q16566 whole entry): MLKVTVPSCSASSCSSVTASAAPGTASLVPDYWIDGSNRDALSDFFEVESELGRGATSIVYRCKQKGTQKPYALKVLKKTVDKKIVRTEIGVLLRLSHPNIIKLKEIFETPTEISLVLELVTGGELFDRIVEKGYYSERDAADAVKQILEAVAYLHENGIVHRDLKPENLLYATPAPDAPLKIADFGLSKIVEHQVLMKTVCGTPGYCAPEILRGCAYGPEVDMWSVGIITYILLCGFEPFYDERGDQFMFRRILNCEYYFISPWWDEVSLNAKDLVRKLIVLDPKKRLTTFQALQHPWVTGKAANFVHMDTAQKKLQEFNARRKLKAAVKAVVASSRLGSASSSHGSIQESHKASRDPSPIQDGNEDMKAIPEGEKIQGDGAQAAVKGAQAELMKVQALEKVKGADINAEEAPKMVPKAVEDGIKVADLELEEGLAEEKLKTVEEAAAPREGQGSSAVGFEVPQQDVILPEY

Row | Compound | residual activity [1] | Ki ([2]; read-out: Ki) | inhibition [3] | residual activity [4] | residual activity [5] | residual activity [6] | residual activity [7] | residual activity [8] | residual activity [9] | residual activity [10] | residual activity [11] | residual activity [12] | residual activity [13] | residual activity [14] | residual activity [15] | Ki (Histamine H2 receptor; read-out: Ki) | residual activity [16] | residual activity [17] | residual activity [18] | residual activity [19] | other results
1 | CNCc1ccccc1-c1csc([C@H](C)Nc2nc(C)nc3cc(OC)c(OC)cc23)c1 [BAY-294] | 100% | 95.3 nM | 36.6% | 100% | 100% | 100% | 89% | 99% | 98% | 100% | 87% | 81% | 100% | 100% | 93% | 21.1 nM | 75% | 100% | 78% | 100% | Ki ([2]; read-out: pKi (converted)): 86.1 nM; residual activity [20]: 100%; residual activity [21]: 100%; inhibition [22]: 81.2%; Ki ([23]; read-out: Ki): 314 nM; Ki ([23]; read-out: pKi (converted)): 224 nM; residual activity [24]: 93%; residual activity [25]: 100%; residual activity [26]: 100%; residual activity [27]: 99%; residual activity [28]: 87%; residual activity [29]: 89%; residual activity [30]: 93%
2 | CNCc1ccccc1-c1csc([C@@H](C)Nc2nc(C)nc3cc(OC)c(OC)cc23)c1 [BAY-293] | 100% | 265 nM | 32.5% | 81% | 99% | 100% | 76% | 88% | 80% | 100% | 83% | 100% | 100% | 88% | 91% | 140 nM | 91% | 100% | 73% | 100% | Ki (Histamine H2 receptor; read-out: pKi (converted)): 140 nM; residual activity [20]: 100%; residual activity [21]: 86%; inhibition [22]: 75%; Ki ([23]; read-out: Ki): 238 nM; Ki ([23]; read-out: pKi (converted)): 209 nM; residual activity [24]: 85%; residual activity [25]: 99%; residual activity [26]: 93%; residual activity [27]: 77%; residual activity [28]: 86%; residual activity [29]: 100%; residual activity [30]: 100%
